Measured values taken from patent publication US4361553A, “Therapeutic uses of dynorphin” (Regents of the University of California, priority 1981, dated 1982).

Columns and labels:
naive mice = test: Tail-flick analgesia, morphine s.c. with or without dynorphin-(1-13) i.c.v., naive group (Example III); type: in vivo
Protocol: (§1) Male simonesen ICR mice (Gilroy, CA) weighing between 20-25 g were housed for at least one day prior to experimentation, and used within 5 days. Each mouse was used only once.
(§2) Analgesia was measured by the tail-flick method of D'Amour and Smith, J.Pharmac.Exp.Ther., 72, pp. 74-79 (1941), incorporated herein by reference, as modified by Tulunay and Takemori, J.Pharmac.Exp.Ther., 190, pp. 395-400 (1974), incorporated herein by reference. […] Nonresponding animals were removed from the heat stimulus when reaction times exceeded 10 sec. to avoid the tail damage.
(§3) Drugs were injected 30 min prior to testing, unless otherwise indicated.
(§4) The animals were separated into two groups.
(§5) The ED50 values, their 95% confidence limits and significance of the potency ratio between two ED50 values were determined by the method of Litchfield and Wilcoxon, J.Pharmacol.Exp.Ther, 96:99-113 (1949), incorporated herein by reference.

[1] = Addictiveness compared with morphine; type: in vivo
mouse vas deferens = conditions: cited from earlier work
morphine tolerant mice [2] = test: Tail-flick analgesia, morphine s.c. with or without dynorphin-(1-13) i.c.v., morphine tolerant group (Example I); type: in vivo; conditions: dynorphin alone up to 50 μg/mouse
Protocol: as §1, §2, §3, §4, §5

guinea pig ileum = conditions: cited from earlier work
morphine dependent mice = test: Spontaneous withdrawal jumping after removal of morphine pellets (Example IV); type: in vivo; conditions: compared with saline
Protocol: Mice which jumped were separated and received 4 μl of saline i.c.v. or different doses of dynorphin, and tested 30 min and then 60 min after injection.

morphine tolerant mice [3] = test: Tail-flick analgesia, β-endorphin i.c.v. with or without dynorphin-(1-13) i.c.v., morphine tolerant group (Example II); type: in vivo; conditions: for ED50 of β-endorphin: i.c.v.
Protocol: as §1, §2, §3, §4, §5

For `CN1CC[C@]23c4c5ccc(O)c4O[C@H]2[C@@H](O)C=C[C@H]3[C@H]1C5.O=S(=O)(O)O` [Morphine, morphine sulfate], the “Analgesia (%)” value (naive mice; morphine 2 mg/kg s.c. alone) was 10%, the “Analgesia (%)” value (naive mice; morphine 4 mg/kg s.c. alone) was 30% and the “Analgesia (%)” value (naive mice; morphine 7.5 mg/kg s.c. alone) was 80%.

In the case of `CC[C@H](C)[C@H](NC(=O)[C@H](CCCNC(=N)N)NC(=O)[C@H](CCCNC(=N)N)NC(=O)[C@H](CC(C)C)NC(=O)[C@H](Cc1ccccc1)NC(=O)CNC(=O)CNC(=O)[C@@H](N)Cc1ccc(O)cc1)C(=O)N[C@@H](CCCNC(=N)N)C(=O)N1CCC[C@H]1C(=O)N[C@@H](CCCCN)C(=O)N[C@@H](CC(C)C)C(=O)N[C@@H](CCCCN)C(=O)O` [dynorphin-(1-13)], the “Times less addictive than morphine” value [1] is reported as “at least 100 times”.

In the case of dynorphin, the “Agonist properties in mouse vas deferens” value (mouse vas deferens) is given as “potent agonist properties”, the Own analgesic potency (morphine tolerant mice [2]) is given as “no analgesic potency” and the “Agonist properties in guinea pig ileum” value (guinea pig ileum) is given as “potent agonist properties”. For the same compound, the Effect on withdrawal (morphine dependent mice) was “significantly reduced, or repressed, withdrawal”.

For β-endorphin, the “ED50 of β-endorphin” value (morphine tolerant mice [3]; in the presence of 10 μg dynorphin-(1-13)) was “about 1.00 μg/mouse”, the “ED50 of β-endorphin” value (morphine tolerant mice [3]; in the presence of 20 μg dynorphin-(1-13)) was “about 0.55 μg/mouse” and the “Analgesia (%)” value (morphine tolerant mice [3]; β-endorphin 1 μg/mouse i.c.v. alone) was 10%. The “Analgesia (%)” value (morphine tolerant mice [3]; β-endorphin 2 μg/mouse i.c.v. alone) was 40% and the “Analgesia (%)” value (morphine tolerant mice [3]; β-endorphin 6 μg/mouse i.c.v. alone) was 100%.
